The numbers were not newly measured in EP4520317A1, “TRANSDERMAL THERAPEUTIC SYSTEM OF LUMATEPERONE” (Luye Pharma Switzerland AG, priority 2023, dated 2025), which cites them from elsewhere.

For this data set the following is noted: in vivo.

In the case of `CN1CCN2c3c(cccc31)[C@@H]1CN(CCCC(=O)c3ccc(F)cc3)CC[C@@H]12` [lumateperone, 1-(4-fluoro-phenyl)-4-((6bR, 10aS)-3-methyl-2,3,6b,9,10,10a-hexahydro-1H,7H-pyrido[3',4':4,5]pyrrolo[1,2,3-de]quinoxalin-8-yl)-butan-1-one], the oral bioavailability entry was “about 4.4%”.
